Measured values: ChEMBL document CHEMBL1287693, “Selective accumulation of a novel antimalarial rhodacyanine derivative, SSJ-127, in an organelle of Plasmodium berghei” (Bioorg Med Chem, 2010)
The source made the active and inactive calls. The calls are words filed in the database; no cut-off is given here.

Experiments:
[1] = system: Plasmodium berghei; assay: Drug uptake in ring stage of Plasmodium berghei NK65 infected in ICR mice (Mus musculus) RBCs at 10 nM after 20 min using Rhodamine 123 by fluorescence microscopy; type: ADME, organism-based; conditions: in vivo, 0.01 µM
[2] = system: Plasmodium berghei; assay: Drug uptake in early trophozoite stage of Plasmodium berghei NK65 infected in ICR mice (Mus musculus) RBCs at 10 nM after 20 min using Rhodamine 123 by fluorescence microscopy; type: ADME, organism-based; conditions: in vivo, 0.01 µM
[3] = system: Plasmodium berghei; assay: Drug uptake in late trophozoite stage of Plasmodium berghei NK65 infected in ICR mice (Mus musculus) RBCs at 10 nM after 20 min using Rhodamine 123 by fluorescence microscopy; type: ADME, organism-based; conditions: in vivo, 0.01 µM
[4] = system: Plasmodium berghei; assay: Drug uptake in schizont stage of Plasmodium berghei NK65 infected in ICR mice (Mus musculus) RBCs at 10 nM after 20 min using Rhodamine 123 by fluorescence microscopy; type: ADME, organism-based; conditions: in vivo, 0.01 µM
[5] = system: Plasmodium berghei; assay: Antimalarial activity against Plasmodium berghei NK65 infected in mice (Mus musculus) assessed as reduction of parasitaemia at 40 mg/kg, subcutaneous daily for 3 days; type: functional; design: scale not given: the % may be the effect or the level left
[6] = system: Plasmodium berghei; assay: Antimalarial activity against Plasmodium berghei NK65 infected in mice (Mus musculus) assessed as increase of mice (Mus musculus) survival days at 40 mg/kg, subcutaneous daily for 3 days measured up to 18 months; type: functional, organism-based; design: dose 40 mg/kg
[7] = system: Mus musculus; assay: Drug uptake in Plasmodium berghei NK65 infected ICR mice (Mus musculus) RBCs at 40 mg/kg, subcutaneously qd for 3 days after 23 hrs; type: ADME, organism-based; design: dose 40 mg/kg, route subcutaneous; conditions: in vivo, sc
[8] = system: Plasmodium berghei; assay: Antimalarial activity against Plasmodium berghei NK65 infected in mice (Mus musculus) assessed as reduction of parasitaemia at 40 mg/kg, subcutaneous after 23 hrs (reference value: 8.2 to 25.3 %); type: functional; design: scale not given: the % may be the effect or the level left
[9] = system: Plasmodium berghei; assay: Effect on multidrug resistance protein-mediated Rhodamine 123 drug uptake in blood stage of Plasmodium berghei NK65 mitochondria infected ICR mice (Mus musculus) RBCs at 10 nM after 20 min by fluorescence microscopy
[10] = Drug uptake in blood stage of Plasmodium berghei NK65 infected ICR mice (Mus musculus) RBCs at 0.25 uM after 20 min using Rhodamine 123 by fluorescence microscopy; type: ADME, tissue-based; conditions: erythrocyte
[11] = Drug uptake in blood stage of Plasmodium berghei NK65 mitochondria infected ICR mice (Mus musculus) RBCs at 0.25 uM after 20 min using Rhodamine 123 by fluorescence microscopy; type: ADME
[12] = Drug uptake in blood stage of Plasmodium berghei NK65 nucleus infected ICR mice (Mus musculus) RBCs at 0.25 uM after 20 min using Rhodamine 123 by fluorescence microscopy; type: ADME, tissue-based
[13] = system: Plasmodium berghei; assay: Effect on multidrug resistance protein-mediated Rhodamine 123 drug uptake in blood stage of Plasmodium berghei NK65 mitochondria infected ICR mice (Mus musculus) RBCs at 10 uM after 20 min by fluorescence microscopy

Row | SMILES | Drug uptake [1] | Drug uptake [2] | Drug uptake [3] | Drug uptake [4] | Activity [5] | Activity [6] | Drug uptake [7] | Activity [8] | Drug uptake [9] | Drug uptake [10] | Drug uptake [11] | Drug uptake [12] | Drug uptake [13]
1 | CCn1c(=O)/c(=C/C=c2\nc3c(o2)=CC=CN3C)s/c1=C\c1sc2ccccc2[n+]1C.[Cl-] | Active | Active | Active | Active | 100% | Active | Active | 10.8% | Active | Active | Active | Active | –
2 | N#CC(C#N)=NNc1cccc(Cl)c1 | – | – | – | – | – | – | – | – | – | – | – | – | inactive
3 | CCCCCC[C@H]1C(=O)O[C@H](C)[C@H](NC(=O)c2cccc(NC=O)c2O)C(=O)O[C@@H](C)[C@@H]1OC(=O)CC(C)C | – | – | – | – | – | – | – | – | – | – | – | – | inactive
